Source: patent US20240391954A1, “MC4R AGONIST PEPTIDES” (The Regents of the University of Michigan, priority 2021, published 2024)
Like-named read-outs stand apart in the source and are kept apart here. Positions of bridges follow the written chain, without caps; N, C: chain ends. Non-standard residues stand in square brackets, D forms with d. Residues, ends and D or L forms follow the SMILES beside them. dPhe(4-tBu) = CC(C)(C)c1ccc(C[C@@H](N)C(=O)O)cc1; dPhe(4-Br) = N[C@H](Cc1ccc(Br)cc1)C(=O)O; 2Nal = N[C@@H](Cc1ccc2ccccc2c1)C(=O)O; Cit = NC(=O)NCCC[C@H](N)C(=O)O; Nle = CCCC[C@H](N)C(=O)O; Aib = CC(C)(N)C(=O)O

Assays:
human MC3R = biological target: T1, human MC3R (Homo sapiens, UniProt P41968); experiment: split-luciferase cAMP sensor assay, agonist mode (measurement window 1), hMC3R; type: cell-based; settings: for Emax / EC50: agonist mode; for Emax: read-out: MC3R cAMP % max activation; for EC50: read-out: MC3R cAMP EC50
T1 construct: expressed in transfected cells; host or cells: HEK-293 cells stably expressing the GScAMP22F split-luciferase cAMP sensor (parent reporter line from Promega); MC3R clone generated in-house, G418 selection
T1 sequence (P41968 whole entry): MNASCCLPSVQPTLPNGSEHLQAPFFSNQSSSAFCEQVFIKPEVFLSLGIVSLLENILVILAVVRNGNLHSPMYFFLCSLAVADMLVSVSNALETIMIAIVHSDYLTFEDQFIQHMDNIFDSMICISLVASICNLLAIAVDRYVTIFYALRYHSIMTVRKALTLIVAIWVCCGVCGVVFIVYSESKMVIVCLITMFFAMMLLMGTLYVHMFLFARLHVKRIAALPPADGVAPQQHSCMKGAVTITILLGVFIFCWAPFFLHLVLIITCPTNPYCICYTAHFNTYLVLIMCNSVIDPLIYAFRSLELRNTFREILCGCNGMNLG
Description: (§1) The stable cell lines were grown and maintained in selection media consisting of Dulbecco's modified Eagle media (DMEM) with 4.5 g/l D-glucose, and 4 mM L-glutamine (Thermo Fisher Scientific, Waltham, MA), supplemented with 10% fetal bovine serum, 100 units/ml penicillin, 100 μg/ml streptomycin, 2.5 μg/ml amphotericin B, 200 μg/ml hygromycin B (for positive selection of the GScAMP22f luciferase reporter), and Geneticin™ (G418) 700 μg/ml (for MC3R or MC4R selection). Actual serum concentration during the assay is estimated to be about 1%. Cell line identity is routinely verified by qPCR and MC3R-and MC4R-specific oligonucleotides.
(§2) The assay for the determination of the cAMP response in live cells was described previously. […] Cells were seeded at a density of 20,000 cells per well using 384-well poly-D lysine-coated, clear bottom, and black-wall assay plates (Corning Inc. Corning, NJ). Cells were allowed to attach to the plates for 18 to 24 h after which growth media was removed and 20 μl of 4% D-luciferin (Promega) in CO2 independent, serum-free medium (Thermo Fisher Scientific) was added to each well. […] Intracellular cAMP levels were measured using an FDSS 7000EX Functional Drug Screening System (Hamamatsu Photonics, Hamamatsu, Japan) in the Center for Chemical Genomics at the Life Sciences Institute. This instrument allowed the in-line addition of test-peptides and receptor agonists while simultaneously acquiring the luminescence signal from live cells. […] A submaximal forskolin (20 μM) concentration was also included to serve as a normalization reference to account for cell number variations and differences in assay transducer efficiency between cell lines.
(§3) With this set up it was possible to evaluate the direct effect of the test-peptides on the MC3R and MC4R cell lines during measurement window 1, while the antagonist profile in the presence of EC90 α-MSH was determined on measurement window 2. […] EC50 or IC50 potency values were determined by non-linear regression by fitting the data to a sigmoid four-parameter variable slope model using the GraphPad Prism version 8.4 software package (San Diego CA).

human MC4R = biological target: T2, human MC4R (Homo sapiens, UniProt P32245); experiment: split-luciferase cAMP sensor assay, agonist mode (measurement window 1), hMC4R; type: cell-based; settings: for Emax: agonist mode, read-out: MC4R cAMP % max activation
T2 construct: host or cells: HEK-293 cells stably expressing the GScAMP22F split-luciferase cAMP sensor and hMC4R, G418 selection
T2 sequence (P32245 whole entry): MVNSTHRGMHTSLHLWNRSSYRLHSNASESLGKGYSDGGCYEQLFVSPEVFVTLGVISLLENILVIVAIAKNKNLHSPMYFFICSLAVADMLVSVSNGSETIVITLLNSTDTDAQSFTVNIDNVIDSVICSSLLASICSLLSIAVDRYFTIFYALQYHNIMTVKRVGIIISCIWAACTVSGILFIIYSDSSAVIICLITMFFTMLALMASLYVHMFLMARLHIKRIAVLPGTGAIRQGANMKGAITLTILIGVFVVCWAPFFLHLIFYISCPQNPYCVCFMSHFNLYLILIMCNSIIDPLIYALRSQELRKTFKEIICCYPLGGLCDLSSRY
Description: as §1, §2, §3

SMILES	Emax (human MC3R; hMC3R stable cell line) [%]	EC50 (human MC3R; hMC3R stable cell line) [nM]	MC4R selectivity vs MC1R (human MC4R)	MC4R selectivity vs MC3R (human MC4R)	Emax (human MC4R; hMC4R stable cell line) [%]	Emax (human MC3R; % maximal activation) [%]	MC4R selectivity vs MC3R (human MC3R; MC4R versus MC3R)	Emax (human MC4R; % maximal activation) [%]
CC(=O)N[C@H]1CSSC[C@@H](C(N)=O)NC(=O)[C@H](Cc2ccccc2)NC(=O)[C@H](CCCNC(=N)N)NC(=O)[C@@H](Cc2ccc(Br)cc2)NC(=O)[C@H](CCCNC(=N)N)NC(=O)CNC1=O [CTX-1640, cyclo(Cys-Gly-Arg-D-Phe(4-Br)-Arg-Phe-Cys)] (Ac-CGR[dPhe(4-Br)]RFC-NH2; disulfide 1-7 (inferred))	27	10	3.72	3.09	100	–	–	–
CC(=O)N[C@@H](CCCNC(=N)N)C(=O)N[C@H]1CSSC[C@@H](C(N)=O)NC(=O)[C@@H](Cc2c[nH]c3ccccc23)NC(=O)[C@H](CCCNC(=N)N)NC(=O)[C@@H](Cc2ccc(C(C)(C)C)cc2)NC(=O)[C@H](CCCNC(=N)N)NC(=O)[C@@H](C)NC1=O [CTX-1242, Arg-cyclo(Cys-D-Ala-Arg-D-Phe(4-tBu)-Arg-D-Trp-Cys)] (Ac-RC[dA]R[dPhe(4-tBu)]R[dW]C-NH2; disulfide 2-8 (inferred))	2.8	–	0.64	0.08	5.8	–	–	–
CCCC[C@H](NC(C)=O)C(=O)N[C@H]1CSSC[C@@H](C(=O)N[C@@H](CCCNC(=N)N)C(=O)N[C@@H](Cc2ccccc2)C(=O)NCC(N)=O)NC(=O)[C@@H](Cc2c[nH]c3ccccc23)NC(=O)[C@H](CCCNC(=N)N)NC(=O)[C@H](Cc2ccc3ccccc3c2)NC(=O)[C@H](Cc2c[nH]cn2)NC1=O [CTX-2128, Nle-cyclo(Cys-His-Nal(2′)-Arg-D-Trp-Cys)-Arg-Phe-Gly] (Ac-[Nle]CH[2Nal]R[dW]CRFG-NH2; disulfide 2-7 (inferred))	–	–	–	–	–	99	0.01	87
CC(=O)N[C@@H](CCCNC(=N)N)C(=O)N[C@H]1CSSC[C@@H](C(N)=O)NC(=O)[C@@H](Cc2c[nH]c3ccccc23)NC(=O)[C@H](CCCNC(=N)N)NC(=O)[C@@H](Cc2ccc(Br)cc2)NC(=O)[C@@H](CCCNC(=N)N)NC(=O)[C@@H](C)NC1=O [CTX-1250, Arg-cyclo(Cys-D-Ala-D-Arg-D-Phe(4-Br)-Arg-D-Trp-Cys)] (Ac-RC[dA][dR][dPhe(4-Br)]R[dW]C-NH2; disulfide 2-8 (inferred))	10	–	1.06	11	8.7	–	–	–
COc1ccc(C[C@H]2NC(=O)[C@H](CCCNC(N)=O)NC(=O)C(C)(C)NC(=O)[C@@H](NC(=O)[C@H](CCCNC(=N)N)NC(C)=O)CSSC[C@@H](C(N)=O)NC(=O)[C@@H](Cc3c[nH]c4ccccc34)NC(=O)[C@H](CCCNC(=N)N)NC2=O)cc1 [CTX-1600, Arg-cyclo(Cys-Aib-Cit-D-Tyr(4-OMe)-Arg-D-Trp-Cys)] (Ac-RC[Aib][Cit][dY](Me)R[dW]C-NH2; disulfide 2-8)	–	> 10000	>70	>70	58	–	–	–
CC(=O)N[C@@H](CCCNC(=N)N)C(=O)N[C@H]1CSSC[C@@H](C(=O)N[C@@H](CCCNC(=N)N)C(=O)N[C@@H](Cc2ccccc2)C(N)=O)NC(=O)[C@@H](Cc2c[nH]c3ccccc23)NC(=O)[C@H](CCCNC(=N)N)NC(=O)[C@@H](Cc2ccc(Br)cc2)NC(=O)[C@H](CCCNC(=N)N)NC(=O)[C@@H](C)NC1=O [CTX-1220, Arg-cyclo(Cys-D-Ala-Arg-D-Phe(4-Br)-Arg-D-Trp-Cys)-Arg-Phe] (Ac-RC[dA]R[dPhe(4-Br)]R[dW]CRF-NH2; disulfide 2-8 (inferred))	21	–	1.53	3.82	76	–	–	–
